Experiments:
Assay type in all cases: cell-based, human
[1] = tested on: NKG2A+/NKG2C− NK cells; test: NK cell activation markers in NKG2A+/NKG2C- NK cells incubated with peptide and K562 expressing HLA-E (inhibition); conditions: NKG2A+/NKG2C- NK cells, K562/HLA-E
Method: (§1) A human immortalized myelogenous leukemia cell line (K562), which expresses HLA-E was incubated with novel peptides (Table 1) derived from the human proteome or human cytomegalovirus proteome. […] Controls assessments were also performed using NKG2A−/NKG2C− cells (Tables 10-13). Inhibition was indicated by a decrease in percent cells positive for cell surface markers, while activation was indicated by an increase in percent cells positive for cell surface markers.

[2] = tested on: NKG2A−/NKG2C+ NK cells; test: NK cell activation markers in NKG2A-/NKG2C+ NK cells incubated with peptide and K562 expressing HLA-E (activation); conditions: NKG2A-/NKG2C+ NK cells, K562/HLA-E
Method: as §1

[3] = tested on: NKG2A−/NKG2C− NK cells; test: NK cell activation markers in control NKG2A-/NKG2C- NK cells incubated with peptide and K562 expressing HLA-E
Method: as §1

## VMAPQSLLL [VMAPQSLLL (PQS), negative control peptide, reference compound]
[1]; Trial 1
  percentage of CCL3+ NK cells: 49.8%
  percentage of CD107a+ NK cells: 29.1%
  percentage of IFNG+ NK cells: 10.1%
  percentage of TNF+ NK cells: 2.95%
[1]; Trial 2
  percentage of CCL3+ NK cells: 70.6%
  percentage of CD107a+ NK cells: 47.4%
  percentage of IFNG+ NK cells: 27.3%
  percentage of TNF+ NK cells: 13.3%
[1]; Trial 3
  percentage of CCL3+ NK cells: 58.2%
  percentage of CD107a+ NK cells: 46.5%
  percentage of IFNG+ NK cells: 35.1%
  percentage of TNF+ NK cells: 18.8%
[1]; Trial 4
  percentage of CCL3+ NK cells: 50.7%
  percentage of CD107a+ NK cells: 40.7%
  percentage of IFNG+ NK cells: 23.1%
  percentage of TNF+ NK cells: 11.6%
[1]; Trial 5
  percentage of CCL3+ NK cells: 47.7%
  percentage of CD107a+ NK cells: 30.1%
  percentage of IFNG+ NK cells: 14.1%
  percentage of TNF+ NK cells: 6.1%
[1]; Trial 6
  percentage of CCL3+ NK cells: 31.3%
  percentage of CD107a+ NK cells: 24.4%
  percentage of IFNG+ NK cells: 8.37%
  percentage of TNF+ NK cells: 4.14%
[2]; Trial 1
  percentage of CCL3+ NK cells: 47%
  percentage of CD107+ NK cells: 25.2%
  percentage of IFNG+ NK cells: 10.6%
  percentage of TNF+ NK cells: 4.96%
[2]; Trial 2
  percentage of CCL3+ NK cells: 55.3%
  percentage of CD107+ NK cells: 32.8%
  percentage of IFNG+ NK cells: 12.7%
  percentage of TNF+ NK cells: 9.31%
[2]; Trial 3
  percentage of CCL3+ NK cells: 69.4%
  percentage of CD107+ NK cells: 58.6%
  percentage of IFNG+ NK cells: 40.7%
  percentage of TNF+ NK cells: 31.2%
[2]; Trial 4
  percentage of CCL3+ NK cells: 58.6%
  percentage of CD107+ NK cells: 53.6%
  percentage of IFNG+ NK cells: 35.6%
  percentage of TNF+ NK cells: 25.7%
[2]; Trial 5
  percentage of CCL3+ NK cells: 55.4%
  percentage of CD107+ NK cells: 43%
  percentage of IFNG+ NK cells: 19.9%
  percentage of TNF+ NK cells: 14.7%
[2]; Trial 6
  percentage of CCL3+ NK cells: 32.7%
  percentage of CD107+ NK cells: 22.3%
  percentage of IFNG+ NK cells: 10.3%
  percentage of TNF+ NK cells: 5.08%
[3]; Trial 1
  percentage CCL3+ NK cells: 35.1%
  percentage CD107+ NK cells: 24.1%
  percentage TNF+ NK cells: 3.46%
  percentage of IFNG+ NK cells: 14%
[3]; Trial 2
  percentage CCL3+ NK cells: 57.7%
  percentage CD107+ NK cells: 37.9%
  percentage TNF+ NK cells: 9.07%
  percentage of IFNG+ NK cells: 27.9%
[3]; Trial 3
  percentage CCL3+ NK cells: 59.4%
  percentage CD107+ NK cells: 53%
  percentage TNF+ NK cells: 22.6%
  percentage of IFNG+ NK cells: 48.3%
[3]; Trial 4
  percentage CCL3+ NK cells: 35%
  percentage CD107+ NK cells: 28%
  percentage TNF+ NK cells: 8.23%
  percentage of IFNG+ NK cells: 19%
[3]; Trial 5
  percentage CCL3+ NK cells: 34%
  percentage CD107+ NK cells: 24.4%
  percentage TNF+ NK cells: 8.67%
  percentage of IFNG+ NK cells: 18.6%
[3]; Trial 6
  percentage CCL3+ NK cells: 22.4%
  percentage CD107+ NK cells: 19.5%
  percentage TNF+ NK cells: 4.08%
  percentage of IFNG+ NK cells: 10%
